From patent publication US20240299385A1 (ReWind Therapeutics NV, priority 2021, published 2024)

Target: T1, human GPR17 receptor (Homo sapiens, UniProt Q13304)
T1 construct: host or cells: HEK-293
Experiment: Calcium mobilization functional assay (Fluo-8, FLIPR TETRA) in HEK-293 hGPR17 (Gα-q assay)
Type: cell-based
Settings: antagonism of MDL29,951 (~EC80) induced Ca2+ signal; cell line (HEK-293 hGPR17 or HEK-293 Suchi5 hGPR17) not given
Summary of the method: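 Fluo-8-loaded HEK-293 hGPR17 cells (60 min dye loading, room temperature) were preincubated with compound for twenty minutes, then challenged with agonist MDL29,951 at ~EC80, 500 nM. Intracellular calcium release via Gα-q was recorded as FLIPR fluorescence for a further 2 minutes; compounds tested in duplicate.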

T1 sequence (Q13304 whole entry): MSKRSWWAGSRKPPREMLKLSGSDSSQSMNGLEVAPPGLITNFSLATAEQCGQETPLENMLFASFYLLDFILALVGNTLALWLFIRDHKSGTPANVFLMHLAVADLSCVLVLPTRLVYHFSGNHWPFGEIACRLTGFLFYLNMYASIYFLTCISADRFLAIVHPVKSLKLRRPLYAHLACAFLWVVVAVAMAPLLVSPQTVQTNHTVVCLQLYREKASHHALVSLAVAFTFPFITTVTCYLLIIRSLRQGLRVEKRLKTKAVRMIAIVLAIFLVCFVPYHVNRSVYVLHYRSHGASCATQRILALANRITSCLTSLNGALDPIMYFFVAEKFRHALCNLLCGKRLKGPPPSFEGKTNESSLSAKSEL

SMILES | IC50 [nM]
O=S(=O)(Nc1cc(F)c(Br)cc1F)c1c[nH]c(-c2ccc(F)cc2F)c1 [Cpd 447, N-(4-bromo-2,5-difluorophenyl)-5-(2,4-difluorophenyl)-1H-pyrrole-3-sulfonamide] | 500 to 5000
N#CCOc1cc(F)c(NS(=O)(=O)c2c[nH]c(-c3ccccc3F)c2)cc1F [Cpd 448, N-[4-(cyanomethoxy)-2,5-difluorophenyl]-5-(2-fluorophenyl)-1H-pyrrole-3-sulfonamide] | < 500
N#CCOc1cc(F)c(NS(=O)(=O)c2c[nH]c(-c3cc(Cl)ccc3F)c2)cc1F [Cpd 449, 5-(5-chloro-2-fluorophenyl)-N-[4-(cyanomethoxy)-2,5-difluorophenyl]-1H-pyrrole-3-sulfonamide] | < 500
N#CCOc1cc(F)c(NS(=O)(=O)c2c[nH]c(-c3ccc(F)cc3)c2)cc1F [Cpd 450, N-[4-(cyanomethoxy)-2,5-difluorophenyl]-5-(4-fluorophenyl)-1H-pyrrole-3-sulfonamide] | 500 to 5000
N#CCOc1cc(F)c(NS(=O)(=O)c2c[nH]c(-c3ccc(F)cc3F)c2)cc1F [Cpd 451, N-[4-(cyanomethoxy)-2,5-difluorophenyl]-5-(2,4-difluorophenyl)-1H-pyrrole-3-sulfonamide] | 500 to 5000
O=S(=O)(Nc1cc(F)c(OC(F)F)cc1F)c1c[nH]cc1Cc1cccs1 [Cpd 452, N-[4-(difluoromethoxy)-2,5-difluorophenyl]-4-(thiophen-2-ylmethyl)-1H-pyrrole-3-sulfonamide] | < 500
O=S(=O)(Nc1cc(F)c(OC(F)F)cc1F)c1c[nH]cc1Cc1cccc(F)c1 [Cpd 453, N-[4-(difluoromethoxy)-2,5-difluorophenyl]-4-[(3-fluorophenyl)methyl]-1H-pyrrole-3-sulfonamide] | < 500
O=S(=O)(Nc1cc(F)c(OC(F)F)cc1F)c1c[nH]cc1Cc1cccc(Cl)c1 [Cpd 454, 4-[(3-chlorophenyl)methyl]-N-[4-(difluoromethoxy)-2,5-difluorophenyl]-1H-pyrrole-3-sulfonamide] | 500 to 5000
O=S(=O)(Nc1cc(Cl)c(OC(F)F)cc1F)c1c[nH]c(-c2ccccc2)c1 [Cpd 455, N-[5-chloro-4-(difluoromethoxy)-2-fluorophenyl]-5-phenyl-1H-pyrrole-3-sulfonamide] | < 500
N#Cc1cc(F)c(NS(=O)(=O)c2c[nH]c(-c3cc(Cl)c(F)cc3F)c2)cc1F [Cpd 456, 5-(5-chloro-2,4-difluorophenyl)-N-(4-cyano-2,5-difluorophenyl)-1H-pyrrole-3-sulfonamide] | < 500
Cc1cc(-c2cc(S(=O)(=O)Nc3cc(F)c(C(F)(F)F)cc3F)c[nH]2)cs1 [Cpd 457, N-[2,5-difluoro-4-(trifluoromethyl)phenyl]-5-(5-methylthiophen-3-yl)-1H-pyrrole-3-sulfonamide] | 500 to 5000
O=S(=O)(Nc1cc(F)c(C(F)(F)F)cc1F)c1c[nH]c(-c2csc(Cl)c2)c1 [Cpd 458, 5-(5-chlorothiophen-3-yl)-N-[2,5-difluoro-4-(trifluoromethyl)phenyl]-1H-pyrrole-3-sulfonamide] | 500 to 5000
N#CCOc1cc(F)c(NS(=O)(=O)c2c[nH]c(-c3ccccc3Cl)c2)cc1F [Cpd 459, 5-(2-chlorophenyl)-N-[4-(cyanomethoxy)-2,5-difluorophenyl]-1H-pyrrole-3-sulfonamide] | < 500
COc1nc(OCC(F)F)c(F)cc1NS(=O)(=O)c1c[nH]cc1-c1cccc(F)c1 [Cpd 460, N-[6-(2,2-difluoroethoxy)-5-fluoro-2-methoxypyridin-3-yl]-4-(3-fluorophenyl)-1H-pyrrole-3-sulfonamide] | 500 to 5000
Cc1[nH]cc(S(=O)(=O)Nc2ccc(C#N)cc2F)c1-c1ccccc1 [Cpd 461, N-(4-cyano-2-fluorophenyl)-5-methyl-4-phenyl-1H-pyrrole-3-sulfonamide] | 5000 to 50000
N#Cc1cc(F)c(NS(=O)(=O)c2c[nH]c(-c3c(F)cc(F)cc3F)c2)cc1F [Cpd 462, N-(4-cyano-2,5-difluorophenyl)-5-(2,4,6-trifluorophenyl)-1H-pyrrole-3-sulfonamide] | < 500
O=S(=O)(Nc1cc(F)c(OCC(F)F)cc1F)c1c[nH]c(-c2ccccc2)c1 [Cpd 463, N-[4-(2,2-difluoroethoxy)-2,5-difluorophenyl]-5-phenyl-1H-pyrrole-3-sulfonamide] | 500 to 5000
COc1cc(CC#N)cnc1NS(=O)(=O)c1c[nH]c(-c2ccccc2F)c1 [Cpd 464, N-[5-(cyanomethyl)-3-methoxypyridin-2-yl]-5-(2-fluorophenyl)-1H-pyrrole-3-sulfonamide] | 500 to 5000
O=S(=O)(Nc1cc(F)c(C(F)(F)F)cc1F)c1c[nH]c(-c2cccc3cccnc23)c1 [Cpd 465, N-[2,5-difluoro-4-(trifluoromethyl)phenyl]-5-quinolin-8-yl-1H-pyrrole-3-sulfonamide] | 500 to 5000
N#CCOc1cc(F)c(NS(=O)(=O)c2c[nH]cc2-c2cccc(F)c2)cc1F [Cpd 466, N-[4-(cyanomethoxy)-2,5-difluorophenyl]-4-(3-fluorophenyl)-1H-pyrrole-3-sulfonamide] | 500 to 5000

SMILES | IC50 [nM]
O=S(=O)(Nc1cc(F)c(OCC(F)F)cc1F)c1c[nH]cc1Cc1ccccc1 [Cpd 468, 4-benzyl-N-[4-(2,2-difluoroethoxy)-2,5-difluorophenyl]-1H-pyrrole-3-sulfonamide] | 500 to 5000
COc1nc(Br)cnc1NS(=O)(=O)c1c[nH]cc1-c1cccc(F)c1 [Cpd 469, N-(5-bromo-3-methoxypyrazin-2-yl)-4-(3-fluorophenyl)-1H-pyrrole-3-sulfonamide] | 500 to 5000
N#Cc1cc(F)c(NS(=O)(=O)c2c[nH]c(-c3cc(Cl)c(F)cc3F)c2)cc1Cl [Cpd 470, 5-(5-chloro-2,4-difluorophenyl)-N-(5-chloro-4-cyano-2-fluorophenyl)-1H-pyrrole-3-sulfonamide] | 500 to 5000
Cc1cc(NS(=O)(=O)c2c[nH]c(-c3cc(Cl)c(F)cc3F)c2)c(F)cc1C#N [Cpd 471, 5-(5-chloro-2,4-difluorophenyl)-N-(4-cyano-2-fluoro-5-methylphenyl)-1H-pyrrole-3-sulfonamide] | 500 to 5000
N#CCOc1cnc(NS(=O)(=O)c2c[nH]c(-c3ccccc3)c2)c(F)c1 [Cpd 472, N-[5-(cyanomethoxy)-3-fluoropyridin-2-yl]-5-phenyl-1H-pyrrole-3-sulfonamide] | 500 to 5000
O=S(=O)(Nc1cc(F)c(OCC(F)F)cc1F)c1c[nH]c(-c2ccccn2)c1 [Cpd 473, N-[4-(2,2-difluoroethoxy)-2,5-difluorophenyl]-5-pyridin-2-yl-1H-pyrrole-3-sulfonamide] | 500 to 5000
O=S(=O)(Nc1cc(F)c(OC(F)F)cc1F)c1c[nH]c(-c2ccoc2)c1 [Cpd 474, N-[4-(difluoromethoxy)-2,5-difluorophenyl]-5-(furan-3-yl)-1H-pyrrole-3-sulfonamide] | < 500
O=S(=O)(Nc1cc(F)c(OC(F)F)cc1F)c1c[nH]c(-c2cccs2)c1 [Cpd 475, N-[4-(difluoromethoxy)-2,5-difluorophenyl]-5-thiophen-2-yl-1H-pyrrole-3-sulfonamide] | < 500
O=S(=O)(Nc1cc(F)c(OC(F)F)cc1F)c1c[nH]c(-c2ccsc2)c1 [Cpd 476, N-[4-(difluoromethoxy)-2,5-difluorophenyl]-5-thiophen-3-yl-1H-pyrrole-3-sulfonamide] | < 500
O=S(=O)(Nc1cc(F)c(Br)cc1F)c1c[nH]c(-c2ccoc2)c1 [Cpd 477, N-(4-bromo-2,5-difluorophenyl)-5-(furan-3-yl)-1H-pyrrole-3-sulfonamide] | < 500
O=S(=O)(Nc1cc(F)c(Br)cc1F)c1c[nH]c(-c2cccs2)c1 [Cpd 478, N-(4-bromo-2,5-difluorophenyl)-5-(thiophen-2-yl)-1H-pyrrole-3-sulfonamide] | < 500
O=S(=O)(Nc1cc(F)c(Br)cc1F)c1c[nH]c(-c2ccsc2)c1 [Cpd 479, N-(4-bromo-2,5-difluorophenyl)-5-thiophen-3-yl-1H-pyrrole-3-sulfonamide] | < 500
COc1cccc(Cc2c[nH]cc2S(=O)(=O)Nc2cc(F)c(OC(F)F)cc2F)c1 [Cpd 480, N-[4-(difluoromethoxy)-2,5-difluorophenyl]-4-[(3-methoxyphenyl)methyl]-1H-pyrrole-3-sulfonamide] | < 500
O=S(=O)(Nc1cc(F)c(C(F)(F)F)cc1F)c1c[nH]cc1Cc1cccc(F)c1 [Cpd 481, N-[2,5-difluoro-4-(trifluoromethyl)phenyl]-4-[(3-fluorophenyl)methyl]-1H-pyrrole-3-sulfonamide] | 500 to 5000
COc1cccc(Cc2c[nH]cc2S(=O)(=O)Nc2cc(F)c(C(F)(F)F)cc2F)c1 [Cpd 482, N-[2,5-difluoro-4-(trifluoromethyl)phenyl]-4-[(3-methoxyphenyl)methyl]-1H-pyrrole-3-sulfonamide] | 500 to 5000
O=S(=O)(Nc1cc(F)c(OC(F)F)cc1F)c1c[nH]cc1Cc1cccc(OC(F)F)c1 [Cpd 483, N-[4-(difluoromethoxy)-2,5-difluorophenyl]-4-[[3-(difluoromethoxy)phenyl]methyl]-1H-pyrrole-3-sulfonamide] | 500 to 5000
O=S(=O)(Nc1cc(F)c(OC(F)F)cc1F)c1c[nH]cc1Cc1ccccc1F [Cpd 484, N-[4-(difluoromethoxy)-2,5-difluorophenyl]-4-[(2-fluorophenyl)methyl]-1H-pyrrole-3-sulfonamide] | < 500
O=S(=O)(Nc1cc(F)c(OC(F)F)cc1F)c1c[nH]cc1Cc1ccc(F)cc1 [Cpd 485, N-[4-(difluoromethoxy)-2,5-difluorophenyl]-4-[(4-fluorophenyl)methyl]-1H-pyrrole-3-sulfonamide] | 500 to 5000
Cc1ccc(Cc2c[nH]cc2S(=O)(=O)Nc2ccc(C#N)cc2F)s1 [Cpd 486, N-(4-cyano-2-fluorophenyl)-4-[(5-methylthiophen-2-yl)methyl]-1H-pyrrole-3-sulfonamide] | 500 to 5000
COc1ccc(Cl)cc1-c1cc(S(=O)(=O)Nc2ccc(C#N)cc2F)c[nH]1 [Cpd 488, 5-(5-chloro-2-methoxyphenyl)-N-(4-cyano-2-fluorophenyl)-1H-pyrrole-3-sulfonamide] | 500 to 5000
